# Data from patent US7230016B2, “Pioglitazone salts, such as pioglitazone sulfate, and pharmaceutical compositions and processes using the same” (priority 2003, dated 2007).
# Entries after “also recorded” stand apart in the source; their conditions may differ. Structures can show the parent of a compound that is named as a salt. Where two headings read alike, the source gives them in different places.
# Legend:
# [1] = Aqueous solubility of pioglitazone salts derived from strong acids or bases; type: physicochemical; conditions: for soluble in H2O: aqueous solubility of the salt, * = the salt is dissolved in water to form a blurred solution
# Description: As used herein a pioglitazone salt is considered “water-soluble” if a salt concentration of at least 7 mg/ml can be achieved, even if only momentarily, in distilled water at 25° C. […] The base salts also dissolved in water but they typically formed an unclear solution. The water-soluble salts of pioglitazone are useful as active agents in forming a pioglitazone pharmaceutical composition, especially solid dosage forms, as is described herein after. […] Depending on the salt, the precipitation of a solid begins as quickly as within a few minutes or after several hours. The time of precipitation also depends on nucleation. In particular, once a solid forms, the solution quickly precipitates to form a complete suspension.
# [2] = Dissolution experiment comparing pioglitazone salts (Example 2); type: physicochemical; conditions: room temperature; for Dissolution (instant dissolution rate): 0.25 mmol salt added into 10 ml H2O with stirring, ** = salt dissolved partially to form an unclear solution; for later behaviour of the solution (turning into suspension / pioglitazone base) / kind of solution yielded on addition to water: 0.25 mmol salt in 10 ml H2O, stirring; for kind of solution yielded on addition to water: tosylate and 2-napsylate within 1 minute
# Description: At room temperature, each pioglitazone salt (0.25 mmol) was added into 10 ml H2O with stirring.
# [3] = cited from earlier work
# [4] = Properties of pioglitazone sulfate (solid state, methanol solubility, pH of aqueous solution); type: physicochemical
# Description: Of the water-soluble salts, pioglitazone sulfate is the most preferred. As used herein “pioglitazone sulfate” means the salt formed from pioglitazone and sulfuric acid. The salt preferably has approximately a 1:1 molar ratio of pioglitazone moiety to sulfuric acid moiety, especially in solid form. […] Pioglitazone sulfate may be isolated in solid state as a white or almost white crystalline material. It melts at a temperature of about 105 to 115° C., without decomposition. […] Pioglitazone sulfate is thus an especially useful form of pioglitazone for making pharmaceutical formulations, e.g., as an active agent. The pioglitazone sulfate can precipitate from the solution spontaneously, but more likely some step such as cooling, concentrating, adding a seeding crystal, or adding a contrasolvent is advantageously and/or necessarily carried out. As pioglitazone sulfate is soluble in methanol, the addition of a contrasolvent is advantageous for precipitating the solid state salt. […] The size and shape of the formed crystals may be modified by known ways, for instance by precipitation regimen or by using crystallization modifiers. Solid state pioglitazone sulfate is a stable, easily handled solid material, and it may be used as an equivalent to pioglitazone hydrochloride in pharmaceutical compositions for treating pioglitazone-treatable diseases. […] Liquid compositions, particularly aqueous compositions, may include a solution stabilizer as indicated above. The stabilizer preferably comprises a water-soluble polymer, such as hydroxypropylmethylcellulose. The concentration of the polymer in the solution can be within any of the above-described ranges but most preferably is within the range from 0.1 to 10% (w/V) of the total volume. An aqueous solution of pioglitazone sulfate typically has a pH of about 4, which is well suited for both parenteral and peroral compositions.
# [5] = Stability of pioglitazone sulfate aqueous solution with HPMC as solution stabilizer (Examples 3 and 4); type: physicochemical
# Description: Specifically, a solution stabilizer can be effectively added to a pioglitazone sulfate aqueous solution to enhance the stability. As used herein a “solution stabilizer” is an additive that when present in some amount in an aqueous pioglitazone sulfate solution, provides a statistically significant delay in the precipitation of pioglitazone base from the solution in comparison to the same solution held under the same conditions but without the solution stabilizer contained therein. […] Typically the solution stabilizer is a polymer, such as a water-soluble polymer, or a crown-ether. The solution stabilizer may be fully dissolved, partly dissolved and/or swelled, or not dissolved in the aqueous solution, but is preferably dissolved therein. Preferably the solution stabilizer is hydroxypropylmethylcellulose (HPMC), polyvinylpyrrolidone, or cyclodextrin, and most preferably HPMC. The amount of solution stabilizer is generally within the range of 1 to 500 mg/ml of the solution, typically 1 to 200 mg/ml, more typically 10 to 100 mg/ml. A stabilized pioglitazone sulfate solution is thus especially useful as a liquid pharmaceutical formulation and/or for making a liquid pharmaceutical formulation. The following system was tested using HPMC as an additive. […] To a clear solution containing 1.0 g of hydroxypropylmethylcellulose (HPMC) in 25 ml of H2O was added 125 mg of pioglitazone sulfate with stirring.
compound,measurement,setting,value
CCc1ccc(CCOc2ccc(CC3SC(=O)NC3=O)cc2)nc1 (stereo not shown) [2-Napsylate],soluble in H2O,[1],Slight
same,Dissolution (instant dissolution rate),[2],yes/no**
same,later behaviour of the solution (turning into suspension / pioglitazone base),[2],quickly turned into a suspension
same,kind of solution yielded on addition to water,[2],unclear solutions
CCc1ccc(CCOc2ccc(CC3SC(=O)NC3=O)cc2)nc1 (stereo not shown) [Ca salt],soluble in H2O,[1],yes*
CCc1ccc(CCOc2ccc(CC3SC(=O)NC3=O)cc2)nc1 (stereo not shown) [Choline salt],soluble in H2O,[1],yes*
CCc1ccc(CCOc2ccc(CC3SC(=O)NC3=O)cc2)nc1 (stereo not shown) [Edisylate],soluble in H2O,[1],Yes
same,dissolution in water,[1]; listed as ethane-di-sulfonate,dissolved instantly in water
same,Dissolution (instant dissolution rate),[2]; listed as ethane-disulfonate,Yes
same,later behaviour of the solution (turning into suspension / pioglitazone base),[2]; listed as ethane disulfonate,slowly turned into a suspension
same,kind of solution yielded on addition to water,[2]; listed as ethane disulfonate,clear solutions
CCc1ccc(CCOc2ccc(CC3SC(=O)NC3=O)cc2)nc1 (stereo not shown) [Hydrobromide],soluble in H2O,[1],No
"CCc1ccc(CCOc2ccc(CC3SC(=O)NC3=O)cc2)nc1 (stereo not shown) [Hydrochloride, Pioglitazone hydrochloride]","solubility in N,N-dimethylformamide","[3]; N,N-dimethylformamide",dissolves well
same,solubility in acetone,[3]; acetone,very slightly soluble
same,solubility in acetonitrile,[3]; acetonitrile,very slightly soluble
same,solubility in anhydrous ethanol,[3]; anhydrous ethanol,slightly soluble
same,solubility in dimethyl-sulfoxide,[3]; dimethyl-sulfoxide,dissolves well
same,solubility in ether,[3]; ether,insoluble
same,stability of the crystalline material,[3]; room temperature and under moisture,stable
same,solubility in water,"[3]; water, hydrochloride",practically insoluble; also recorded: extremely insoluble
same,soluble in H2O,[1]; hydrochloride,No
same,behaviour of methanolic solution poured into water,[1]; no base (neutralizing agent) used,pioglitazone base quickly precipitates
same,dissolution in water,[1]; hydrochloride,did not dissolve in water
CCc1ccc(CCOc2ccc(CC3SC(=O)NC3=O)cc2)nc1 (stereo not shown) [K salt],soluble in H2O,[1],yes*
CCc1ccc(CCOc2ccc(CC3SC(=O)NC3=O)cc2)nc1 (stereo not shown) [Mesylate],soluble in H2O,[1],Yes
same,dissolution in water,[1],dissolved instantly in water
CCc1ccc(CCOc2ccc(CC3SC(=O)NC3=O)cc2)nc1 (stereo not shown) [Na salt],soluble in H2O,[1],yes*
"CCc1ccc(CCOc2ccc(CC3SC(=O)NC3=O)cc2)nc1 (stereo not shown) [Sulfate, pioglitazone sulfate]",soluble in H2O,[1],Yes
same,stability of the water solution (precipitation of pioglitazone base),[1]; aqueous solution without stabilizer,"can stably remain in an aqueous solution for hours; also recorded: will eventually, after a trace of solid appears, turn into a suspension of pioglitazone base"
same,dissolution in water,[1],dissolved instantly in water
same,solubility in water,[1],superior aqueous solubility
same,pH of aqueous solution,[4]; aqueous solution,about 4
same,solubility in methanol,[4]; methanol,soluble
same,hygroscopicity of the solid compound,[4]; solid,not hygroscopic
same,stability of the solid state material,[4]; solid state,stable
same,dissolution in HPMC water solution,"[5]; 100 mg in HPMC water solution (2%, 25 ml)",easily dissolved
same,dissolution in HPMC water solution,[5]; 125 mg added with stirring to 1.0 g HPMC in 25 ml H2O,A clear solution was formed
same,stability of the HPMC-stabilized solution,"[5]; 125 mg in 1.0 g HPMC / 25 ml H2O, stirred at room temperature for more than one month",No obvious solid appeared
same,stability of the HPMC-stabilized solution,"[5]; 0.4% w/v pioglitazone sulfate in 2% HPMC water solution, room temperature, no obvious precipitation of a solid",stable at room temperature for at least four weeks
same,Dissolution (instant dissolution rate),[2],Yes
same,later behaviour of the solution (turning into suspension / pioglitazone base),[2],slowly turned into a suspension
same,kind of solution yielded on addition to water,[2],clear solutions
CCc1ccc(CCOc2ccc(CC3SC(=O)NC3=O)cc2)nc1 (stereo not shown) [Tosylate],Dissolution (instant dissolution rate),[2],yes/no**
same,later behaviour of the solution (turning into suspension / pioglitazone base),[2],quickly turned into a suspension
same,kind of solution yielded on addition to water,[2],unclear solutions
"CCc1ccc(CCOc2ccc(CC3SC(=O)NC3=O)cc2)nc1 (stereo not shown) [pioglitazone base, 5-[[4-[2-(5-ethyl-2-pyridinyl)-ethoxy]phenyl]methyl]-2,4-thiazolidinedione, reference compound]",solubility in water,[1],so low
